Test results reported in article PMC3438379 (Journal of enzyme inhibition and medicinal chemistry, 2011).
Read-outs that look alike come from different tables or passages of the source.

Key:
[1] = tested on: HIV-1-infected MT-4 cells; details: ref [9]; cited from earlier work
HIV-1 protease = HIV-1 protease (Human immunodeficiency virus type 1 group M subtype B, UniProt P04585); details: read-out: IC50 (inhibition of HIV-1 protease), cited from earlier work
[2] = cited from earlier work
[3] = Relative aqueous solubility by stepwise water dilution of DMSO solution; assay type: physicochemical; details: 50 μL DMSO solution of 5 mg mL^−1, water added in 50 μL steps

SMILES | activity against HIV-induced cytopathic effects [1] | IC50 (HIV-1 protease; ref [18]) [µM] | IC50 (HIV-1 protease; ref [19]) [µM] | solubility in DMSO ([2]; 25°C, ref [23]) | solubility in ethanol ([2]; 25°C, ref [23]) | Water solubility ([2]; at 25°C, ref [22]) [µg/mL] | solubility in water ([2]; room temperature, ref [22]) | Water solubility (dilution steps required to achieve clear solution) [3] [x]
C=C(C)[C@@H]1CC[C@]2(C(=O)O)CC[C@]3(C)[C@H](CC[C@@H]4[C@@]5(C)CC[C@H](OC(=O)CC(C)(C)C(=O)O)C(C)(C)[C@@H]5CC[C@]43C)[C@@H]12 [3-O-(3′,3′-dimethylsuccinyl) betulinic acid] | high activity |  |  |  |  |  |  | 
C=C(C)[C@@H]1CC[C@]2(C(=O)O)CC[C@]3(C)[C@H](CC[C@@H]4[C@@]5(C)CC[C@H](O)C(C)(C)[C@@H]5CC[C@]43C)[C@@H]12 [compound 1, 3β-hydroxy-lup-20(29)-en-28-oic acid] |  | 9 | 2.5 | 5 % (w/v) | 1 % (w/v) | 0.02 | about 0.02 μg mL^−1 | < 2
C=C(C)[C@@H]1CC[C@]2(C(=O)[O-])CC[C@]3(C)[C@H](CC[C@@H]4[C@@]5(C)CC[C@H](O)C(C)(C)[C@@H]5CC[C@]43C)[C@@H]12.C[N+](C)(C)CCO [compound 8, cholinium betulinate] |  |  |  |  |  |  |  | > 100
